pIC50: −log10 of the molar value.

We go through 25 compounds from US20170037028A1 (BAYER PHARMA AKTIENGESELLSCHAFT, priority 2013, published 2017).

For this assay, the target named is T1, GLUT1 (Homo sapiens, UniProt P11166).
T1 sequence (P11166 1-492): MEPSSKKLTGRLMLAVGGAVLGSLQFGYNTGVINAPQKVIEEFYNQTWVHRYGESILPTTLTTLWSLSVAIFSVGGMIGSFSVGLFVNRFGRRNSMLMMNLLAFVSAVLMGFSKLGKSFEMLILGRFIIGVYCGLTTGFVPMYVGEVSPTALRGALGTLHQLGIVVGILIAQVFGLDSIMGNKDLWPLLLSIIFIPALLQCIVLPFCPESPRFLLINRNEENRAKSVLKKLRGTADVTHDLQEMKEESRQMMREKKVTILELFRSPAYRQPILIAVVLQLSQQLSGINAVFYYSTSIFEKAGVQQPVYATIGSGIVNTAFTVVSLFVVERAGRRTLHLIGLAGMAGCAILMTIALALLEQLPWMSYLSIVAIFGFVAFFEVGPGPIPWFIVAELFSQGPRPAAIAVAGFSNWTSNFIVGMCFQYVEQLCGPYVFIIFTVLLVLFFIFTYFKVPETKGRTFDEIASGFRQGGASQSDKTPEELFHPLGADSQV
Put plainly: Indirect measurement of GLUT1 activity by quantification of intracellular ATP levels (glucose induced ATP increase). Also noted: endogenous in cells; host or cells: DLD1 or CHO-K1. The settings on record: read-out: IC50 regarding glucose induced ATP increase (GLUT1 inhibition). The assay is classed as cell-based. A digest of the protocol: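 Intracellular ATP was measured by CellTiter-Glo luminescence as an indirect readout of transport: glucose-driven for GLUT1, fructose-driven for GLUT2. DLD1 or CHO-K1 cells were used alongside an oxidative phosphorylation inhibitor. Beforehand, cells were held overnight in glucose-free 1% FCS medium to deplete ATP.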
For the compound `Cc1nn(Cc2ccc(OC(F)(F)F)cc2)c(C)c1NC(=O)c1cc(C(F)(F)F)nc2c(Cl)cc(Cl)cc12` [Example 60, 6,8-dichloro-N-{3,5-dimethyl-1-[4-(trifluoromethoxy)benzyl]-1H-pyrazol-4-yl}-2-(trifluoromethyl)quinoline-4-carboxamide], the pIC50 is 7.01. Regarding `COc1cc(C(=O)Nc2c(C)nn(Cc3ccc(C)cc3)c2C)c2ccccc2n1` [Example 61, N-[3,5-dimethyl-1-(4-methylbenzyl)-1H-pyrazol-4-yl]-2-methoxyquinoline-4-carboxamide], the pIC50 was 6.96. On to `Cc1ccc2nc(C)cc(C(=O)Nc3c(C)nn(Cc4ccc(F)cc4)c3C)c2c1` [Example 62, N-[1-(4-fluorobenzyl)-3,5-dimethyl-1H-pyrazol-4-yl]-2,6-dimethylquinoline-4-carboxamide], for which the pIC50 was 6.90. As to `Cc1nn(Cc2ccc(F)cc2)c(C)c1NC(=O)c1cc(C(F)(F)F)nc2ccc(OC(F)(F)F)cc12` [Example 63, N-[1-(4-fluorobenzyl)-3,5-dimethyl-1H-pyrazol-4-yl]-6-(trifluoromethoxy)-2-(trifluoromethyl)quinoline-4-carboxamide], the pIC50 is 6.89. The result for `Cc1ccc2nc(C)cc(C(=O)Nc3c(C)nn(Cc4ccc(F)c(F)c4)c3C)c2c1` [Example 64, N-[1-(3,4-difluorobenzyl)-3,5-dimethyl-1H-pyrazol-4-yl]-2,6-dimethylquinoline-4-carboxamide] reads 6.89; that for `COc1cc(C(=O)Nc2c(C)nn(Cc3ccccc3)c2C)c2ccccc2n1` [Example 65, N-(1-benzyl-3,5-dimethyl-1H-pyrazol-4-yl)-2-methoxyquinoline-4-carboxamide], 6.88; that for `Cc1nn(Cc2ccccn2)c(C)c1NC(=O)c1cc(C(F)(F)F)nc2c(Cl)cc(Cl)cc12` [Example 66, 6,8-dichloro-N-[3,5-dimethyl-1-(pyridin-2-ylmethyl)-1H-pyrazol-4-yl]-2-(trifluoromethyl)quinoline-4-carboxamide], 6.87. As to `COc1cccc(Cn2nc(C)c(NC(=O)c3cc(C(F)(F)F)nc4c(Cl)cc(Cl)cc34)c2C)c1` [Example 67, 6,8-dichloro-N-[1-(3-methoxybenzyl)-3,5-dimethyl-1H-pyrazol-4-yl]-2-(trifluoromethyl)quinoline-4-carboxamide], the pIC50 was 6.84. With `Cc1nn(Cc2ccccc2C#N)c(C)c1NC(=O)c1cc(C(F)(F)F)nc2c(Cl)cc(Cl)cc12` [Example 68, 6,8-dichloro-N-[1-(2-cyanobenzyl)-3,5-dimethyl-1H-pyrazol-4-yl]-2-(trifluoromethyl)quinoline-4-carboxamide], the pIC50 was 6.83. For `CCc1cc(C(=O)Nc2c(C)nn(Cc3ccc(F)cc3)c2C)c2ccccc2n1` [Example 69, 2-ethyl-N-[1-(4-fluorobenzyl)-3,5-dimethyl-1H-pyrazol-4-yl]quinoline-4-carboxamide], the pIC50 is 6.79. `Cc1nn(Cc2ccccn2)c(C)c1NC(=O)c1cc(C(F)(F)F)nc2ccc(Br)cc12` [Example 70, 6-bromo-N-[3,5-dimethyl-1-(pyridin-2-ylmethyl)-1H-pyrazol-4-yl]-2-(trifluoromethyl)quinoline-4-carboxamide]: the pIC50 was 6.76. With `Cc1nn(Cc2cccc(C#N)c2)c(C)c1NC(=O)c1cc(C(F)(F)F)nc2ccc(Br)cc12` [Example 71, 6-bromo-N-[1-(3-cyanobenzyl)-3,5-dimethyl-1H-pyrazol-4-yl]-2-(trifluoromethyl)quinoline-4-carboxamide], the pIC50 is 6.76. As for `Cc1nn(Cc2cccc(F)c2)c(C)c1NC(=O)c1cc(C(F)(F)F)nc2ccc(Br)cc12` [Example 72, 6-bromo-N-[1-(3-fluorobenzyl)-3,5-dimethyl-1H-pyrazol-4-yl]-2-(trifluoromethyl)quinoline-4-carboxamide], the pIC50 is 6.75. With `Cc1ccc2nc(C)cc(C(=O)Nc3c(C(F)(F)F)nn(Cc4ccc(F)cc4)c3C)c2c1` [Example 73, N-[1-(4-fluorobenzyl)-5-methyl-3-(trifluoromethyl)-1H-pyrazol-4-yl]-2,6-dimethylquinoline-4-carboxamide], the pIC50 is 6.75.

In the case of `Cc1nn(Cc2ccccc2F)c(C)c1NC(=O)c1cc(C(F)(F)F)nc2ccc(Br)cc12` [Example 74, 6-bromo-N-[1-(2-fluorobenzyl)-3,5-dimethyl-1H-pyrazol-4-yl]-2-(trifluoromethyl)quinoline-4-carboxamide], the pIC50 was 6.74. Regarding `COc1ccc2nc(O)cc(C(=O)Nc3c(C)nn(Cc4ccc(F)cc4)c3C)c2c1` [Example 75, N-[1-(4-fluorobenzyl)-3,5-dimethyl-1H-pyrazol-4-yl]-2-hydroxy-6-methoxyquinoline-4-carboxamide], the pIC50 was 6.74.

As for `COc1cc(C(=O)Nc2c(C)nn(Cc3cccc(C)c3)c2C)c2ccccc2n1` [Example 76, N-[3,5-dimethyl-1-(3-methylbenzyl)-1H-pyrazol-4-yl]-2-methoxyquinoline-4-carboxamide], the pIC50 was 6.73.

For the compound `COc1cc(C(=O)Nc2c(C)nn(Cc3ccccc3F)c2C)c2ccccc2n1` [Example 77, N-[1-(2-fluorobenzyl)-3,5-dimethyl-1H-pyrazol-4-yl]-2-methoxyquinoline-4-carboxamide], the pIC50 was 6.69. In the case of `Cc1nn(Cc2ccc(F)cc2)c(C)c1NC(=O)c1cc(C#N)nc2ccccc12` [Example 78, 2-cyano-N-[1-(4-fluorobenzyl)-3,5-dimethyl-1H-pyrazol-4-yl]quinoline-4-carboxamide], the pIC50 is 6.65. For `Cc1nn(Cc2ccc(F)cc2)c(C)c1NC(=O)c1cc(C2CC2)nc2ccc(C(F)(F)F)cc12` [Example 79, 2-cyclopropyl-N-[1-(4-fluorobenzyl)-3,5-dimethyl-1H-pyrazol-4-yl]-6-(trifluoromethyl)quinoline-4-carboxamide], the pIC50 is 6.65. Take `COc1cc(C(=O)Nc2c(C)nn(Cc3ccccc3C#N)c2C)c2ccccc2n1` [Example 80, N-[1-(2-cyanobenzyl)-3,5-dimethyl-1H-pyrazol-4-yl]-2-methoxyquinoline-4-carboxamide]: the pIC50 was 6.64. For the compound `COc1cccc(Cn2nc(C)c(NC(=O)c3cc(OC)nc4ccccc34)c2C)c1` [Example 81, 2-methoxy-N-[1-(3-methoxybenzyl)-3,5-dimethyl-1H-pyrazol-4-yl]quinoline-4-carboxamide], the pIC50 is 6.64. As for `Cc1cccnc1Cn1nc(C)c(NC(=O)c2cc(C(F)(F)F)nc3c(Cl)cc(Cl)cc23)c1C` [Example 82, 6,8-dichloro-N-{3,5-dimethyl-1-[(3-methylpyridin-2-yl)methyl]-1H-pyrazol-4-yl}-2-(trifluoromethyl)quinoline-4-carboxamide], the pIC50 was 6.60. With `Cc1nn(Cc2ccccc2OC(F)(F)F)c(C)c1NC(=O)c1cc(C(F)(F)F)nc2ccc(Br)cc12` [Example 83, 6-bromo-N-{3,5-dimethyl-1-[2-(trifluoromethoxy)benzyl]-1H-pyrazol-4-yl}-2-(trifluoromethyl)quinoline-4-carboxamide], the pIC50 is 6.60. `Cc1ccc2nc(C)cc(C(=O)Nc3c(C)nn(Cc4c(F)cccc4F)c3C)c2c1` [Example 84, N-[1-(2,6-difluorobenzyl)-3,5-dimethyl-1H-pyrazol-4-yl]-2,6-dimethylquinoline-4-carboxamide]: the pIC50 was 6.59.

The term pIC50 denotes −log10 of the IC50, conventionally taken in molar units.
